Our source for the IC50 values is patent US20170107212A1, “NOVEL COMPOUNDS” (Bayer Pharma Aktiengesellschaft, priority 2014, published 2017).

Experiment [1] deals with constitutive active colorectal cancer cell (CRC) Wnt pathway, HCT116 TOPFlash. Put plainly: Cellular reporter assay, HCT116 Super TopFlash (constitutive active Wnt pathway), luciferase expression. The class given is cell-based. The settings on record: Homo sapiens, HCT-116, 36 h, HCT116 Super TopFlash reporter cells, 36 hours incubation, dilution series 50 μM to 15 nM. An outline of the steps: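 HCT116 cells stably carrying Super TopFlash (β-catenin ΔS45, constitutive Wnt) run in parallel with FOP control line; compounds 50 μM to 15 nM (3.16-fold) in CAFTY buffer pH 7.4 with 2 mM Ca2+, 0.01% BSA, 36 h at 37 °C. Luciferase luminescence read as Wnt activity.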

The next experiment concerns HCT116 FOPFlash. Put plainly: Control reporter assay, HCT116 FOP control vector (non-functional TCF elements), luciferase expression. In kind it is cell-based. The settings on record: Homo sapiens, HCT-116, 36 h, HCT116 FOP control reporter cells, 36 hours incubation, dilution series 50 μM to 15 nM. An outline of the steps:
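Stable HCT116 cells carrying FOP vector (randomized non-functional TCF sites) plus pcDNA3, run in parallel with TOP line; compounds 50 μM to 15 nM (3.16-fold steps) added in CAFTY buffer pH 7.4 with 2 mM Ca2+, 0.01% BSA. Incubated 36 h at 37 °C, 5% CO2; luciferase luminescence read.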

Where a name gives a salt, the structure may show the parent alone. Bounds are passed on as bounds.

Turning to `CN1CCN(CC(=O)Nc2cc(C(=O)Nc3nnc(-c4cnccc4C(F)(F)F)s3)ccc2OC(F)(F)F)CC1` [Example 70, 3-{[(4-methylpiperazin-1-yl)acetyl]amino}-4-(trifluoromethoxy)-N-{5-[4-(trifluoromethyl)pyridin-3-yl)-1,3,4-thiadiazol-2-yl}benzamide], the IC50 in experiment [1] was 5.15 µM; with HCT116 FOPFlash, at least 50 µM.

With `Cc1ccncc1-c1nnc(NC(=O)c2ccc(OC(F)(F)F)c(NC(=O)CN3CCOCC3)c2)s1` [Example 71, N-[5-(4-methylpyridin-3-yl)-1,3,4-thiadiazol-2-yl]-3-[(morpholin-4-ylacetyl)amino]-4-(trifluoromethoxy)benzamide], the IC50 in experiment [1] is 4.66 µM; in the experiment on HCT116 FOPFlash, at least 50 µM.

As to `O=C(CN1CCOCC1)Nc1cc(C(=O)Nc2nnc(-c3cncnc3)s2)ccc1OC1CC1` [Example 72, 4-(cyclopropyloxy)-3-[(morpholin-4-ylacetyl)amino]-N-[5-(pyrimidin-5-yl)-1,3-4-thiadiazol-2-yl)benzamide], the results for the concentration for half-maximal inhibition (IC50) (in experiment [1]; in the experiment with HCT116 FOPFlash) were 1.3 µM and at least 50 µM, respectively.

As for `COCCOc1ccc(C(=O)Nc2nnc(-c3cnccc3C)s2)cc1NC(=O)CN1CCN(C)CC1` [Example 73, 4-(2-methoxyethoxy)-3-{[(4-methylpiperazin-1-yl)acetyl]amino}-N-[5-(4-methylpyridin-3-yl)-1,3,4-thiadiazol-2-yl]benzamide], the 50% inhibitory concentration (IC50) is 1 µM in experiment [1] and at least 50 µM with HCT116 FOPFlash.

With `COCCCOc1ccc(C(=O)Nc2nnc(-c3cnccc3C)s2)cc1NC(=O)CN1CCOCC1` [Example 74, 4-(3-methoxypropoxy)-N-[5-(4-methylpyridin-3-yl)-1,3,4-thiadiazol-2-yl)-3-[(morpholin-4-ylacetyl)amino]benzamide], the figures for the IC50 (in experiment [1]; in the experiment on HCT116 FOPFlash) were 3.7 µM and at least 50 µM, respectively.

For `O=C(CN1CCOCC1)Nc1cc(C(=O)Nc2ccc(-c3cncnc3)cn2)ccc1OC1CC1` [Example 75, 4-(cyclopropyloxy)-3-[(morpholin-4-ylacetyl)amino]-N-[5-(pyrimidin-5-yl)pyridin-2-yl]benzamide], the 50% inhibitory concentration (IC50) in experiment [1] is 0.037 µM; in the experiment on HCT116 FOPFlash, at least 50 µM.

Regarding `O=C(CN1CCOCC1)Nc1cc(C(=O)Nc2cnc(-c3cccnc3)s2)ccc1OC1CC1` [Example 76, 4-(cyclopropyloxy)-3-[(morpholin-4-ylacetyl)amino]-N-[2-(pyridin-3-yl)-1,3-thiazol-5-yl]benzamide], the values for the half-inhibitory concentration (IC50) (in experiment [1]; with HCT116 FOPFlash) were 0.155 µM and at least 50 µM, respectively.

As for `CN1CCN(CC(=O)Nc2cc(C(=O)Nc3nnc(-c4cccnc4)s3)c(F)cc2OC(F)(F)F)CC1` [Example 77, 2-fluoro-5-{[(4-methylpiperazin-1-yl)acetyl]amino}-N-[5-(pyridin-3-yl)-1,3,4-thiadiazol-2-yl]-4-(trifluoromethoxy)benzamide], the 50% inhibitory concentration (IC50) is 0.18 µM in experiment [1] and at least 50 µM in the experiment with HCT116 FOPFlash.

Consider `Cc1ccncc1-c1nnc(NC(=O)c2cc(NC(=O)CN3CCN(C)CC3)c(OC(F)(F)F)cc2F)s1` [Example 78, 2-fluoro-5-{[(4-methylpiperazin-1-yl)acetyl]amino}-N-[5-(4-methylpyridin-3-yl)-1,3,4-thiadiazol-2-yl]-4-(trifluoromethoxy)benzamide], for which the half-inhibitory concentration (IC50) in experiment [1] is 0.24 µM; with HCT116 FOPFlash, at least 50 µM.

Regarding `Cc1ccncc1-c1nnc(NC(=O)c2ccc(OC3COC3)c(NC(=O)CN3CCOCC3)c2)s1` [Example 79, N-[5-(4-methylpyridin-3-yl)-1,3,4-thiadiazol-2-yl]-3-[(morpholin-4-ylacetyl)amino]-4-(oxetan-3-yloxy)benzamide], the values for the IC50 (in experiment [1]; with HCT116 FOPFlash) were 0.24 µM and at least 50 µM, respectively.

For the molecule `O=C(CN1CCOCC1)Nc1cc(C(=O)Nc2nnc(-c3ccccn3)s2)ccc1OC(F)(F)F` [Example 80, 3-[{morpholin-4-ylacetyl)amino]-N-[5-(pyridin-2-yl)-1,3,4-thiadiazol-2-yl]-4-(trifluoromethoxy)benzamide], the IC50 is 27.5 µM in experiment [1] and at least 50 µM with HCT116 FOPFlash.

On to `O=C(CN1CCOCC1)Nc1cc(C(=O)Nc2nnc(-c3ccncc3)s2)ccc1OC(F)(F)F` [Example 81, 3-[(morpholin-4-ylacetyl)amino]-N-[5-(pyridin-4-yl)-1,3,4-thiadiazol-2-yl]-4-(trifluoromethoxy)benzamide], for which the half-inhibitory concentration (IC50) (in experiment [1]; in the experiment on HCT116 FOPFlash) was at least 50 µM each time.

Take `O=C(CN1CCOCC1)Nc1cc(C(=O)Nc2nnc(-c3cccnc3)s2)ccc1OC(F)(F)F` [Example 82, 3-[(morpholin-4-ylacetyl)amino]-N-[5-(pyridin-3-yl)-1,3,4-thiadiazol-2-yl]-4-(trifluoromethoxy)benzamide]: the 50% inhibitory concentration (IC50) is 21.2 µM in experiment [1] and at least 50 µM in the experiment with HCT116 FOPFlash.

`CN1CCN(CC(=O)Nc2cc(C(=O)Nc3nnc(-c4ccncc4)s3)ccc2OC(F)(F)F)CC1` [Example 83, 3-{[(4-methylpiperazin-1-yl)acetyl]amino}-N-[5-(pyridin-4-yl)-1,3,4-thiadiazol-2-yl]-4-(trifluoromethoxy)benzamide]: the figures for the IC50 (in experiment [1]; with HCT116 FOPFlash) were 26.3 µM and at least 50 µM, respectively.

Turning to `CN1CCN(CC(=O)Nc2cc(C(=O)Nc3nnc(-c4cccnc4)s3)ccc2Cl)CC1` [Example 84, 4-chloro-3-{[(4-methylpiperazin-1-yl)acetyl]amino}-N-[5-(pyridin-3-yl)-1,3,4-thiadiazol-2-yl]benzamide hydrochloride], the 50% inhibitory concentration (IC50) (in experiment [1]; in the experiment on HCT116 FOPFlash) was at least 50 µM throughout.

Take `O=C(Nc1nnc(-c2cccnc2)s1)c1ccc(Cl)c(NC(=O)C2(N3CCN(C4CC4)CC3)CC2)c1` [Example 85, 4-chloro-3-({[1-(4-cyclopropylpiperazin-1-yl)cyclopropyl]carbonyl}amino)-N-[5-(pyridin-3-yl)-1,3,4-thiadiazol-2-yl]benzamide]: the figures for the IC50 (in experiment [1]; in the experiment on HCT116 FOPFlash) were 12.5 µM and at least 50 µM, respectively.

Consider `O=C(CN1CCN(C2CC2)CC1)Nc1cc(C(=O)Nc2nnc(-c3cccnc3)s2)ccc1Cl` [Example 86, 4-chloro-3-{[(4-cyclopropylpiperazin-1-yl)acetyl]amino}-N-[5-(pyridin-3-yl)-1,3,4-thiadiazol-2-yl]benzamide], for which the values for the IC50 (in experiment [1]; with HCT116 FOPFlash) were 44 µM and at least 50 µM, respectively.

For `CN1CCN(CC(=O)Nc2cc(C(=O)Nc3nnc(-c4cncnc4)s3)ccc2OC(F)(F)F)CC1` [Example 87, 3-{[(4-methylpiperazin-1-yl)acetyl]amino}-N-[5-(pyrimidin-5-yl)-1,3,4-thiadiazol-2-yl)-4-(trifluoromethoxy)benzamide], the concentration for half-maximal inhibition (IC50) in experiment [1] is 18 µM; in the experiment on HCT116 FOPFlash, at least 50 µM.

As to `O=C(CN1CCOCC1)Nc1cc(C(=O)Nc2nnc(-c3cnccn3)s2)ccc1OC(F)(F)F` [Example 88, 3-[(morpholin-4-ylacetyl)amino]-N-[5-(pyrazin-2-yl)-1,3,4-thiadiazol-2-yl]-4-(trifluoromethoxy)benzamide], the IC50 (in experiment [1]; in the experiment with HCT116 FOPFlash) was at least 50 µM each time.

As for `Cc1cccnc1-c1nnc(NC(=O)c2ccc(OC(F)(F)F)c(NC(=O)CN3CCOCC3)c2)s1` [Example 89, N-[5-(3-methylpyridin-2-yl)-1,3,4-thiadiazol-2-yl]-3-[(morpholin-4-ylacetyl)amino]-4-(trifluoromethoxy)benzamide], the 50% inhibitory concentration (IC50) in experiment [1] is 0.845 µM; with HCT116 FOPFlash it was at least 50 µM.

In the case of `CN1CCN(CC(=O)Nc2cc(C(=O)Nc3nnc(-c4ccnc(N)c4)s3)ccc2OC(F)(F)F)CC1` [Example 90, N-[5-(2-aminopyridin-4-yl)-1,3,4-thiadiazol-2-yl]-3-{[(4-methylpiperazin-1-yl)acetyl]amino}-4-(trifluoromethoxy)benzamide], the IC50 is 7.4 µM in experiment [1] and 31 µM with HCT116 FOPFlash.

As for `Cc1nccnc1-c1nnc(NC(=O)c2ccc(OC(F)(F)F)c(NC(=O)CN3CCOCC3)c2)s1` [Example 91, N-[5-(3-methylpyrazin-2-yl)-1,3,4-thiadiazol-2-yl]-3-[(morpholin-4-ylacetyl)amino]-4-(trifluoromethoxy)benzamide], the half-inhibitory concentration (IC50) is 35.6 µM in experiment [1] and at least 50 µM in the experiment on HCT116 FOPFlash.

For the molecule `Cc1csc(-c2nnc(NC(=O)c3ccc(OC(F)(F)F)c(NC(=O)CN4CCOCC4)c3)s2)n1` [Example 92, N-[5-(4-methyl-1,3-thiazol-2-yl)-1,3,4-thiadiazol-2-yl]-3-[(morpholin-4-ylacetyl)amino]-4-(trifluoromethoxy)benzamide], the IC50 in experiment [1] was 21.2 µM; with HCT116 FOPFlash, at least 50 µM.

Turning to `Cc1ccnc(-c2nnc(NC(=O)c3ccc(OC(F)(F)F)c(NC(=O)CN4CCOCC4)c3)s2)c1` [Example 93, N-[5-(4-methylpyridin-2-yl)-1,3,4-thiadiazol-2-yl]-3-[(morpholin-4-ylacetyl)amino]-4-(trifluoromethoxy)benzamide], the IC50 (in experiment [1]; with HCT116 FOPFlash) was at least 50 µM in each case.

For the molecule `Nc1ncc(-c2nnc(NC(=O)c3ccc(OC(F)(F)F)c(NC(=O)CN4CCOCC4)c3)s2)cn1` [Example 94, N-[5-(2-aminopyrimidin-5-yl)-1,3,4-thiadiazol-2-yl]-3-[(morpholin-4-ylacetyl)amino]-4-(trifluoromethoxy)benzamide], the IC50 in experiment [1] is 23.2 µM; in the experiment with HCT116 FOPFlash, at least 50 µM.

In the case of `Cc1nc(-c2nnc(NC(=O)c3ccc(OC(F)(F)F)c(NC(=O)CN4CCOCC4)c3)s2)cs1` [Example 95, N-[5-(2-methyl-1,3-thiazol-4-yl)-1,3,4-thiadiazol-2-yl]-3-[(morpholin-4-ylacetyl)amino]-4-(trifluoromethoxy)benzamide], the IC50 in experiment [1] is 25.3 µM; in the experiment on HCT116 FOPFlash it was at least 50 µM.
